# Source: ChEMBL document CHEMBL1201862, “PubChem BioAssay data set” (2004)
# Active and inactive are the calls of the source.
# Columns and labels:
# [1] = biological target: Eukaryotic translation initiation factor 4E (Mus musculus, UniProt P63073); assay: blockers of eIF4G binding by eIF4E – biochemical, TR-FRET, dose response (AID 855); type: functional;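 note: potency for disrupting eIF4E binding to eIF4GI seen as loss of FRET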
# [2] = Luminescence Cell-Based Dose Response HTS to Identify Inhibitors of 5'UTR Stem-Loop Driven Prion Protein mRNA Translation in H4 Neuroglioblastoma Cells. [Related pubchem assays: 1827 (Project Summary), 1813 (Primary HTS)]; type: functional
# [3] = biological target: T1, Microphthalmia-associated transcription factor (Homo sapiens, UniProt O75030); assay: reducers of TRPM1 reporter luminescence, concentration series – cell-based, SK-MEL-5, cherry-picked, set 3, MITF inhibitor project, dose response (AID 493073); type: functional;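 note: SK-MEL-5 melanoma cells with luciferase driven by the MITF target TRPM1 promoter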
# T1 sequence (O75030 whole entry): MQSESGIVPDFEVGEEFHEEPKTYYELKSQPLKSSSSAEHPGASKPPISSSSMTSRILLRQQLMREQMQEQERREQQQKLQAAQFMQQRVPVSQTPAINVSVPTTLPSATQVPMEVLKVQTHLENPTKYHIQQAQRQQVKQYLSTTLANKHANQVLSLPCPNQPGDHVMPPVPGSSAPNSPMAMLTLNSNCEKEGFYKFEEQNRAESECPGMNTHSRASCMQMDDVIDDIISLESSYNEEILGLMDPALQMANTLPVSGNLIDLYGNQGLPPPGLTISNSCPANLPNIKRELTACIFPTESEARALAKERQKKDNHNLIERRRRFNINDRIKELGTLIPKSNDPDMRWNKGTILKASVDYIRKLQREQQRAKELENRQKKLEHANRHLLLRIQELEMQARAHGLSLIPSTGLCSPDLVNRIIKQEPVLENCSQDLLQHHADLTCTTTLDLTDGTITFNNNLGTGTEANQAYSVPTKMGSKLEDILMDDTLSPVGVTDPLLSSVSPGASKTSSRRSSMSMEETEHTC
# [4] = biological target: T2, Delta-type opioid receptor (Homo sapiens, UniProt P41143); assay: HTS Image-Based Screen for Antagonists of the DOR Receptor. [Related pubchem assays (depositor defined):AID1777, AID1785, AID1786, AID2133]; type: functional
# T2 sequence (P41143 whole entry): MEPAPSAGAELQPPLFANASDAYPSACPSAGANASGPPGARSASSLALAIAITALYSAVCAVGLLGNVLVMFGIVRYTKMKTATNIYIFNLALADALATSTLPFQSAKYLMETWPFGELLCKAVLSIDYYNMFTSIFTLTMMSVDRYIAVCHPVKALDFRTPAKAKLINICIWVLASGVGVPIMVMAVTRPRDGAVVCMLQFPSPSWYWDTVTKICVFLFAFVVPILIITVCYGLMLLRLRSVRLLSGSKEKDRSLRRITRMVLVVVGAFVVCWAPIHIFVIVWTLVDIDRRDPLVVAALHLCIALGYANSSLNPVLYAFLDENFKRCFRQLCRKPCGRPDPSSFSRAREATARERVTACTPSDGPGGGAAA
# [5] = test system: HEK293; assay: cells; type: functional, cell-based; conditions: Homo sapiens
# [6] = biological target: Mu-type opioid receptor (Homo sapiens, UniProt P35372); assay: HTS Image-Based Screen for Agonists of the MOR Receptor. [Related pubchem assays (depositor defined):AID1777, AID1785, AID1786, AID2133]; type: functional;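 note: imaging of beta-arrestin GFP recruitment into spots after receptor activation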
# Sequence of Mu-type opioid receptor (P35372 whole entry): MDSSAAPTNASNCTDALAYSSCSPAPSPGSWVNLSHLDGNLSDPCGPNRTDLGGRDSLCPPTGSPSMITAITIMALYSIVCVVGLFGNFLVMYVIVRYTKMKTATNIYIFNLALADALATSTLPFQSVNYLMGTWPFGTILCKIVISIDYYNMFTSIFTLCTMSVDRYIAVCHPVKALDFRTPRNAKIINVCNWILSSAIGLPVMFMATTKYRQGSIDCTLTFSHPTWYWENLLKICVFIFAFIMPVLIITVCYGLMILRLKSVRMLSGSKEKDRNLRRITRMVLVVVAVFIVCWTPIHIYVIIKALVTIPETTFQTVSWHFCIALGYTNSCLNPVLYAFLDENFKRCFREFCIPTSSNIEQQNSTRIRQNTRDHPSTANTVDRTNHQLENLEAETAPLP
# [7] = biological target: T3, Kappa-type opioid receptor (Homo sapiens, UniProt P41145); type: functional
# T3 sequence (P41145 whole entry): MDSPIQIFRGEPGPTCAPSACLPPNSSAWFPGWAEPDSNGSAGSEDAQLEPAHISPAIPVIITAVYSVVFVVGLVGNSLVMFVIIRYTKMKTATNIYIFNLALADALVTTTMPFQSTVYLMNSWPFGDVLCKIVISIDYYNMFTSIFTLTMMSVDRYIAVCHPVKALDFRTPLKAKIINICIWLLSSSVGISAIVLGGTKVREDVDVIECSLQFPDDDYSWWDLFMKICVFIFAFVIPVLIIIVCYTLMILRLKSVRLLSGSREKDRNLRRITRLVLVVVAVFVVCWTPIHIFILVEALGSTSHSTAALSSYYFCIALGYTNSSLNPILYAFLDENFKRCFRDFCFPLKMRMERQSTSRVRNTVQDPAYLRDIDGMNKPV
# [8] = test system: BJ; assay: BJ-TERT-LT-ST fibroblast viability loss – cell-based, RAS-independent, luminescence, dose response (AID 1935); type: functional; conditions: Homo sapiens;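 note: BJ fibroblasts immortalized with TERT plus LT and ST oncogenes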
# [9] = biological target: Beta-galactosidase (Escherichia coli, UniProt Q8VNN2); type: functional
# Sequence of Beta-galactosidase (Q8VNN2 whole entry): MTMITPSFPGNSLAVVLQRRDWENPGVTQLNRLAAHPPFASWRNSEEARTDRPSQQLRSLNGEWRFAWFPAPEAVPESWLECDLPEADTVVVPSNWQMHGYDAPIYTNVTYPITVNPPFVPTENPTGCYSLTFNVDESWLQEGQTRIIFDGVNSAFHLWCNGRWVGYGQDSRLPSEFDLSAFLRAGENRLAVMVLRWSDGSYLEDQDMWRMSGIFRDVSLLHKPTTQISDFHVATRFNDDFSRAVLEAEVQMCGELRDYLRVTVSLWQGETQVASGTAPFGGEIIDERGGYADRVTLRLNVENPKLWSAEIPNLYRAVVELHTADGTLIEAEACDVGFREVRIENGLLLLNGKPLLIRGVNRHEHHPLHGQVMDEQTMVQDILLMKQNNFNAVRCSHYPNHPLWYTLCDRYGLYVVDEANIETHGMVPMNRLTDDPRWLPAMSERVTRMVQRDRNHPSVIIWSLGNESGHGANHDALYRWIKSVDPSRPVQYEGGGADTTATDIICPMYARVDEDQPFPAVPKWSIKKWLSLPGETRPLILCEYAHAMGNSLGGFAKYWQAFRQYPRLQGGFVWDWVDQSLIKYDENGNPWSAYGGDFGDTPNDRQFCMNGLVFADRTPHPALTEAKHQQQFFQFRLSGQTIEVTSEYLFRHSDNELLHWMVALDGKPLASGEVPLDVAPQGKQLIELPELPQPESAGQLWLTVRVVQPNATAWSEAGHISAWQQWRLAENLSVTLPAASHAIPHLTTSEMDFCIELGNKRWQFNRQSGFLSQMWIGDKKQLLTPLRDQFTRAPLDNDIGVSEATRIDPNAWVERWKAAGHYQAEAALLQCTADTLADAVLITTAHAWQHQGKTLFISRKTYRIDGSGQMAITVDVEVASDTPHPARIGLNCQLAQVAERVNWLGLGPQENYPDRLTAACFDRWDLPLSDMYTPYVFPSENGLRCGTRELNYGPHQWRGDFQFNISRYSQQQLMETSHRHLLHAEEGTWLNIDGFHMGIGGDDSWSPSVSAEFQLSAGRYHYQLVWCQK
# [10] = luciferase reporter signal suppression in cells – H4 neuroglioma cells, luminescence, dose response (AID 1990); type: functional, cell-based
# [11] = test system: HEK293; assay: NOD2 signaling inhibitors in MDP-stimulated cells, cell-based, uHTS, luminescence (AID 2001); type: functional; conditions: Homo sapiens
# [12] = non-specific 3'UTR reporter inhibition in Clone20-Shn3RL – cell-based, Renilla luciferase, cherry-picked, counter-screen for Shn3 inhibitor project, dose response (AID 624133); type: functional
# [13] = biological target: Beta Lactamase (Pseudomonas aeruginosa, UniProt Q932Y6); assay: BLA reporter interference, concentration series – BLA reporter cells, FRET fluorescence, artefact control for NOD2-RIPK2 interaction inhibitor project, dose response (AID 651552); type: functional, cell-based
# Sequence of Beta Lactamase (Q932Y6 whole entry): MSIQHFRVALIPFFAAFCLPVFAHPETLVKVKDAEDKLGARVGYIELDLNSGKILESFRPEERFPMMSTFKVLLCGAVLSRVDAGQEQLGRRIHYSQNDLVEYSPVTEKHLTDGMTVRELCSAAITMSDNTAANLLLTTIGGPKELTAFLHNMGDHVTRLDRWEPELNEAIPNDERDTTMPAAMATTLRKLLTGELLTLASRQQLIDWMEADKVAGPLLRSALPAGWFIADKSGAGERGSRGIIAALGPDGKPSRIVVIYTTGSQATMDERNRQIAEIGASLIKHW
# [14] = test system: HEK293; assay: inhibition of NOD1-driven NF-kB reporter – cell-based, luminescence, uHTS, primary screen (AID 1578); type: functional; conditions: Homo sapiens
# [15] = DRD fibroblast viability loss – cell-based, non-viral oncogenic, luminescence, dose response (AID 1934); type: functional; conditions: Homo sapiens
# [16] = loss of viability in HepG2 cells – cell-based, CellTiter-Glo, cherry-picked, cytotoxicity control for Shn3 inhibitor project, dose response (AID 624134); type: functional
# [17] = biological target: T3, Kappa-type opioid receptor; type: functional; remark: listed apart in the source
# [18] = biological target: T2, Delta-type opioid receptor; assay: HTS Image-Based Screen for Agonists of the DOR Receptor. [Related pubchem assays (depositor defined):AID1777, AID1786, AID2133]; type: functional
# [19] = test system: BJ; assay: BJ-TERT fibroblast viability loss – cell-based, RAS-independent, luminescence, dose response (AID 1933); type: functional; conditions: Homo sapiens
# [20] = test system: BJ; assay: cells; type: functional, cell-based; conditions: Homo sapiens
# [21] = test system: HEK293; assay: cells; type: functional, cell-based; conditions: Homo sapiens; remark: listed apart in the source
# [22] = alpha-synuclein stem-loop luciferase translation blockers – H4 neuroglioma cells, luminescence, confirmation (AID 1988); type: functional, cell-based
# [23] = Fluorescence-based cell-based high throughput dose response assay for inhibitors of the interaction of nucleotide-binding oligomerization domain containing 2 (NOD2) and the receptor-interacting serine-threonine kinase 2 (RIPK2).; type: functional; conditions: Homo sapiens
# [24] = reduction of Shn3 3'UTR-driven luciferase in osteoblasts – cell-based, Clone20 osteoblasts, firefly luciferase, cherry-picked, dose response (AID 624132); type: functional;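 note: firefly luciferase luminescence from reporter carrying the Shn3 3'UTR in osteoblasts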
# [25] = biological target: Paired box protein Pax-8 (Homo sapiens, UniProt Q06710); assay: PAX8 transcriptional activity inhibition in RMG-I – RMG-I cells, luciferase, cherry-pick, dose response (AID 687027); type: functional, cell-based;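 note: luciferase reporter driven by Pax8 target thyroperoxidase promoter measured by SteadyGlo luminescence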
# Sequence of Paired box protein Pax-8 (Q06710 whole entry): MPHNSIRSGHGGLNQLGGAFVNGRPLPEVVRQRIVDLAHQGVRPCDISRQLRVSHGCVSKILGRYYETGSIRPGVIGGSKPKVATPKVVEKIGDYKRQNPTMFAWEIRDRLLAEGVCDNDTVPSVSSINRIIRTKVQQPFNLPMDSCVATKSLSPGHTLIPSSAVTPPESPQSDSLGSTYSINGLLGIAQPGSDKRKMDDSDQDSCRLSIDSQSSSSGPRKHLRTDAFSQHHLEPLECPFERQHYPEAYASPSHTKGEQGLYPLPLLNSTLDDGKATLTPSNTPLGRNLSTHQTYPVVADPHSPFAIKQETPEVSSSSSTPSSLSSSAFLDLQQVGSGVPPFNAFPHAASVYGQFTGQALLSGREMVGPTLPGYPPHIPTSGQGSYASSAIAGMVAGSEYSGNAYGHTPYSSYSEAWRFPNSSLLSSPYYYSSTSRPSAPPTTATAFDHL
# [26] = biological target: T4, Protein RecA (Mycobacterium tuberculosis, UniProt P9WHJ3); assay: Fluorescence Cell-Free Homogeneous Dose Retest to Identify Inhibitors of RecA-Intein Splicing Activity. [Related pubchem assays (depositor defined):AID2097, AID2223, AID489010, AID492950]; type: functional
# T4 sequence (P9WHJ3 whole entry): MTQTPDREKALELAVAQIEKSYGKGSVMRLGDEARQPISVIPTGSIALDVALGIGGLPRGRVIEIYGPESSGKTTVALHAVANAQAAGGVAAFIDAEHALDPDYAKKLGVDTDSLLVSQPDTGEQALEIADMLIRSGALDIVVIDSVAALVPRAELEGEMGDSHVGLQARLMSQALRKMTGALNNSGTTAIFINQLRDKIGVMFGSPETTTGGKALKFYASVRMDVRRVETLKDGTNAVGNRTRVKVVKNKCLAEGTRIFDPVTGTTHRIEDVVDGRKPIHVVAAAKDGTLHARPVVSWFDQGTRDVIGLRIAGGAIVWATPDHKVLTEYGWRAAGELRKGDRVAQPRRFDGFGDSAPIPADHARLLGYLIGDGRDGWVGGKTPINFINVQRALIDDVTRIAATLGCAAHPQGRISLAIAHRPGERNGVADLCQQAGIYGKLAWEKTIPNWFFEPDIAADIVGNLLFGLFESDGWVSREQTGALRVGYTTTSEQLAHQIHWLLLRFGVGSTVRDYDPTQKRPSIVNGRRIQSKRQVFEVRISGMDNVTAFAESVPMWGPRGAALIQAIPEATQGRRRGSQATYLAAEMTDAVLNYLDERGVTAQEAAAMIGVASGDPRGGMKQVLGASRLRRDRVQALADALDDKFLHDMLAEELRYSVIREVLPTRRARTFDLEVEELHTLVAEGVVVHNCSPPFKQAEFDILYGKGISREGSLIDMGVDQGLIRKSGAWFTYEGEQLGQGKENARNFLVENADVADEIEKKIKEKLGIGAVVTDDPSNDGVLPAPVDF
# [27] = biological target: X-box-binding protein 1 (Homo sapiens, UniProt P17861); type: functional, Cricetulus griseus;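 note: confirmatory dose-response counter-screen serving a CHOP assay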
# Sequence of X-box-binding protein 1 (P17861 whole entry): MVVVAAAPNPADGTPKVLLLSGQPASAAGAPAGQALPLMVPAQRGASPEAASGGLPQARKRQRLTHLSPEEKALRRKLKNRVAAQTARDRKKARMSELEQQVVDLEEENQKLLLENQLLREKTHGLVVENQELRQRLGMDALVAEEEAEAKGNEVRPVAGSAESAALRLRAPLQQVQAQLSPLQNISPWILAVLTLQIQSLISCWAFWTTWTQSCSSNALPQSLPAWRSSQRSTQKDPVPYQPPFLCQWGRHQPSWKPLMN
# [28] = biological target: T5, Replicative DNA helicase DnaB (Mycobacterium tuberculosis, UniProt P9WMR3); assay: DnaB intein splicing inhibitors, dose response, biochemical, cell-free fluorescence (AID 449749); type: functional
# T5 sequence (P9WMR3 whole entry): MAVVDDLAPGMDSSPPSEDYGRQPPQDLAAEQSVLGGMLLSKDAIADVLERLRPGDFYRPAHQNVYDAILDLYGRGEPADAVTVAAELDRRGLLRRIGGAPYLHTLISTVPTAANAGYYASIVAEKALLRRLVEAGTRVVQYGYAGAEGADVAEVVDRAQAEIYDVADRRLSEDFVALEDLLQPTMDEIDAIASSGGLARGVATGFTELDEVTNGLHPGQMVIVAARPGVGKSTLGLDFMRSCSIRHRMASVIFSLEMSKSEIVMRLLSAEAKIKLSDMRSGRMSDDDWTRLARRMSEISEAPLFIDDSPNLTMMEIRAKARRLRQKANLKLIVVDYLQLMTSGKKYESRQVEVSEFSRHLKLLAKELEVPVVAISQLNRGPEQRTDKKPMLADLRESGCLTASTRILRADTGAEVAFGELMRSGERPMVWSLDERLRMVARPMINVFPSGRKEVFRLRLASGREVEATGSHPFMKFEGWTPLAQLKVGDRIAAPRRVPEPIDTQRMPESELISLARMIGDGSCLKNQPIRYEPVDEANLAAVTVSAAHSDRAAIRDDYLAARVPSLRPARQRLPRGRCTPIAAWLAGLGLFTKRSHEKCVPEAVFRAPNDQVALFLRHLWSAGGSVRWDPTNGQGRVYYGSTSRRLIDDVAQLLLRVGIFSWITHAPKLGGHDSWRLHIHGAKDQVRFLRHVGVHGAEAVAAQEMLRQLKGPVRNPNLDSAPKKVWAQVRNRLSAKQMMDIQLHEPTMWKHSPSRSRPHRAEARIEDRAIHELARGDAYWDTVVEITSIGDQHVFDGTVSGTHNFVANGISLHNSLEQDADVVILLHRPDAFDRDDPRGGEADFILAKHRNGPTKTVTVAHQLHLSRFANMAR
# [29] = fluconazole-exposed Candida albicans growth modulators – fluorescence, retest, confirmation (AID 2467); type: functional, cell-based
# [30] = biological target: Cytochrome P450 3A4 (Homo sapiens, UniProt P08684);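 note: CYP3A4 tested as one member of a cytochrome P450 panel screen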
# [31] = biological target: Cytochrome P450 2D6 (Homo sapiens, UniProt P10635);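 note: CYP2D6 member of a cytochrome P450 panel assay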
# Sequence of Cytochrome P450 2D6 (P10635 whole entry): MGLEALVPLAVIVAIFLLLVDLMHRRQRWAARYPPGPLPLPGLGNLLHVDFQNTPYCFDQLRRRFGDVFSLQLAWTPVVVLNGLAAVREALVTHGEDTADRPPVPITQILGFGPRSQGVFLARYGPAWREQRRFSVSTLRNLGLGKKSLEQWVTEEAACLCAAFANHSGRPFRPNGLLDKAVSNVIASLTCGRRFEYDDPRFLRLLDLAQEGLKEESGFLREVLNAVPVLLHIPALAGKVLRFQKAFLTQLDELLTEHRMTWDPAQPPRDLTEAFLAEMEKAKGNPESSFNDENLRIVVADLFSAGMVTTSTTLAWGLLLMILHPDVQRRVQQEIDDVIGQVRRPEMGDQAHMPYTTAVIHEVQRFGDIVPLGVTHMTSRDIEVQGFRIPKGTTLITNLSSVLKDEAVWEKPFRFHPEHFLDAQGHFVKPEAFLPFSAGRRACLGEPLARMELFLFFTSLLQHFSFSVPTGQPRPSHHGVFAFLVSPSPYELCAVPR
# [32] = biological target: Cytochrome P450 2C9 (Homo sapiens, UniProt P11712)
# Sequence of Cytochrome P450 2C9 (P11712 whole entry): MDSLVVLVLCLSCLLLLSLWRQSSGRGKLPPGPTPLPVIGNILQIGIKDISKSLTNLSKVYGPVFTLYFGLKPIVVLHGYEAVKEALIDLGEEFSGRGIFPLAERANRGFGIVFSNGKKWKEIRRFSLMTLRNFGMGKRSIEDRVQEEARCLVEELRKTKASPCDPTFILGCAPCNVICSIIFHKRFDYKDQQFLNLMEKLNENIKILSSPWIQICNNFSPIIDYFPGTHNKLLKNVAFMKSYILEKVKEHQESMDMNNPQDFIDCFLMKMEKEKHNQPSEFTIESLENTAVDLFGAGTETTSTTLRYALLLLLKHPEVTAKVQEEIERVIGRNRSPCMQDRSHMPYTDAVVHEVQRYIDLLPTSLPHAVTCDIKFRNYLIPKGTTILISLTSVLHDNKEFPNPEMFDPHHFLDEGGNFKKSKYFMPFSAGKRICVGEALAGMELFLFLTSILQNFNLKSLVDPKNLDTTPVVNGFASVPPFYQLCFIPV
# [33] = NIH-3T3 fibroblast cytotoxicity, dose response, cytotoxicity control, cell-based, fluorescence, Alamar Blue, secondary assay (AID 2327); type: functional;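 note: NIH-3T3 mouse fibroblasts cultured with fluconazole at 8 µg/mL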
# [34] = biological target: DNA dC->dU-editing enzyme APOBEC-3A (Homo sapiens, UniProt P31941); assay: A3A deaminase inhibition for selectivity – biochemical, dose response (AID 504722); type: functional
# Sequence of DNA dC->dU-editing enzyme APOBEC-3A (P31941 whole entry): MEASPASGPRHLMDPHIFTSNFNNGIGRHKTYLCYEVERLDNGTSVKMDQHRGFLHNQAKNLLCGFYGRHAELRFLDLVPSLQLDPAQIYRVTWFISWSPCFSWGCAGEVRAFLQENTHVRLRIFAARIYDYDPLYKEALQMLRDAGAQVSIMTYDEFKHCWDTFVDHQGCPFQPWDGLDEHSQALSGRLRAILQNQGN
# [35] = biological target: FAD-linked sulfhydryl oxidase ALR (Homo sapiens, UniProt P55789); assay: ALR-catalysed DTT oxidation blockers – biochemical, H2O2 detection, luminescence, cherry-pick, dose response (AID 493248)
# Sequence of FAD-linked sulfhydryl oxidase ALR (P55789 whole entry): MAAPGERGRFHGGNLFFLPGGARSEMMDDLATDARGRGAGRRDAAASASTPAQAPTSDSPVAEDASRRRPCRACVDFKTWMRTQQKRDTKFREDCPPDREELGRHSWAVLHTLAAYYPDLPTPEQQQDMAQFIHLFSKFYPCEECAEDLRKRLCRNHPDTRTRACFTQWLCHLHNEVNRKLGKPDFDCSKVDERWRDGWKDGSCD
# [36] = biological target: DNA dC->dU-editing enzyme APOBEC-3G (Homo sapiens, UniProt Q9HC16); assay: Dose Response confirmation of small molecule APOBEC3G DNA Deaminase Inhibitors via a fluorescence-based single-stranded DNA deaminase assay. [Related pubchem assays (depositor defined):AID493012, AID493028]; type: functional
# [37] = biological target: T6, Rac GTPase-activating protein 1 (Homo sapiens, UniProt Q9H0H5); assay: blockers of MgcRacGAP-driven Rac1 GTP hydrolysis – biochemical, ADP Hunter fluorescence, primary and confirmatory, confirmation (AID 624330); type: functional
# T6 sequence (Q9H0H5 whole entry): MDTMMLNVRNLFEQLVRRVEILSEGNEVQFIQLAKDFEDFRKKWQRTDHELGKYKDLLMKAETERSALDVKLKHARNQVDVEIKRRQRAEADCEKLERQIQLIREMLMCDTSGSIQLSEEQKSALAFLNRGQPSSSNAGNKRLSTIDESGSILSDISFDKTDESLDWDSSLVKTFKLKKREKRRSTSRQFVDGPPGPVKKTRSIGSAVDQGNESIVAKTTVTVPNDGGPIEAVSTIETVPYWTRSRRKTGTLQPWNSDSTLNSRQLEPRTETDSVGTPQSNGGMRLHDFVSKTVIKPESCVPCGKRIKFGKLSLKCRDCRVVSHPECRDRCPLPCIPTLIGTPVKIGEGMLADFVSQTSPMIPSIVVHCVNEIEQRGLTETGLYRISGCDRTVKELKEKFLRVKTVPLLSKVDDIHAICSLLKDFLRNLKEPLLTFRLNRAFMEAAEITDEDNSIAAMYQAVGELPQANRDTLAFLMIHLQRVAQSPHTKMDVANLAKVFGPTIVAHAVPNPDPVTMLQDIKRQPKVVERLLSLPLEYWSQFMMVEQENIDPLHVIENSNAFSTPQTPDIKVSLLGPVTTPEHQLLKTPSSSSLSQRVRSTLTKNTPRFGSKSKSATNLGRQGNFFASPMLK
# Sequence of Eukaryotic translation initiation factor 4E (P63073 whole entry): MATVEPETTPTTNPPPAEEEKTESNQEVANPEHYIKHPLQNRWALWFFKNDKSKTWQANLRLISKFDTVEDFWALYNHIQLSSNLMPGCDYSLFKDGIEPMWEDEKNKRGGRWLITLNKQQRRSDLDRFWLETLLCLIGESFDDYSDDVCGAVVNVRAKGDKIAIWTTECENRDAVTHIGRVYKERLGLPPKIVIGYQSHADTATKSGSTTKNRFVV
compound,measurement,setting,value
CCn1nnnc1SCC(=O)Nc1cccc(NC(C)=O)c1,IC50,[1],> 64 µM (inactive)
COCCN(CC(=O)NC1CCCCC1)C(=O)/C=C/C(=O)c1ccc(OC)cc1O,EC50,[2],9.57 µM (active)
same,AC50,[3],5.48 µM (active)
same,IC50,[4],> 32 µM (inactive)
same,IC50,[5],> 20 µM (inactive)
same,EC50,[6],> 32 µM (inactive)
same,IC50,[7],16.1 µM
same,EC50,[8],1.62 µM (inconclusive)
same,EC50,[9],> 31.5 µM (inactive)
same,EC50,[10],8.52 µM (active)
same,IC50,[11],> 20 µM (inactive)
same,AC50,[12],9.9 µM (active)
same,IC50,[13],17.8 µM (inactive)
same,EC50,[14],> 20 µM (inactive)
same,EC50,[15],2.74 µM (inconclusive)
same,AC50,[16],13.7 µM (active)
same,IC50,[17],7.13 µM (active)
same,EC50,[18],> 32 µM (inactive)
same,EC50,[19],2.71 µM (inconclusive)
same,EC50,[20],9.79 µM (inconclusive)
same,IC50,[21],16.6 µM (active)
same,EC50,[22],> 120 µM (not active)
same,IC50,[23],3.11 µM (active)
same,AC50,[24],2.58 µM (active)
same,AC50,[25],5.38 µM (active)
Cc1cc(-c2[nH]nc3c2C(c2ccc(Cl)cc2)C(C#N)=C(N)O3)c(C)s1 (stereo not drawn),EC50,[26],3.42 µM (active)
same,Absolute IC50 (XBP1),[27],10 µM
same,AC50,[28],3.07 µM (active)
CC(=O)Nc1ccc(N2CCCCC2)c(C(=O)Nc2cccc(C)c2)c1,EC50,[29],> 38 µM (not active)
same,IC50,[1],> 64 µM (inactive)
same,AC50,[30],22.4 µM (inconclusive)
same,AC50,[31],17.8 µM (inconclusive)
same,AC50,[32],12.6 µM (inconclusive)
same,EC50,[33],50.5 µM (active)
Sc1nnc(-c2ccncc2)n1/N=C/C=C/c1ccccc1,IC50,[34],> 100 µM (inactive)
same,AC50,[35],8.12 µM (active)
same,IC50,[36],2.76 µM (active)
same,IC50,[37],125 µM (active)
